The test system of assay [1] is E. coli K12. The assay is described as follows: MIC by broth microdilution against E. coli K12. It counts as cell-based. The following applies: Escherichia coli. As for the experimental part:
The respective minimum inhibition concentration (MIC) of each COE molecule was determined using a broth microdilution method. Briefly, COEs were diluted via a 2-fold dilution series in 100 μL of either Muller Hinton Broth (MHB) for E. coli and S. aureus or Brain Heart Infusion Broth (BHI) for E. faecalis in a 96-well plate to achieve the desired final concentration. Subsequently, each well was inoculated with 100 μL of 1×10^6 colony forming units (CFU) mL^−1 of the respective microorganism in MHB for E. coli or BHI for E. faecalis to achieve an inoculum density of 5×10^5 CFU mL^−1. The plates were then incubated at 37° C. with shaking (200 rpm) for 18 hrs. […] The results were obtained in triplicate.
The MIC values of COE-D4, COE-D6 and COE-D8 against the reference strain E. coli K12, pathogenic E. coli UT189, and the Gram positive pathogen Enterococcus faecalis OG1RF were determined using a broth microdilution method as described in the general method above. The MICs for E. coli K12 were determined to be 128, 16, and 4 μg mL^−1 for COE-D4, COE-D6, and COE-D8, respectively (FIG. 5a). […] This is not surprising as these two organisms differ in the capsular polysaccharides that they expressed, which are known to hinder the uptake of antimicrobials and mitigate their potency (M. A. Campos, et al., Infect. Immun. 2004, 72, 7107-7114). A K-type capsid comprising α2-8-linked sialic acid is excreted by UT189 and is known to be an important virulence factor for this organism (C. Whitfield, et al., Mol. Microbiol. 1999, 31, 1307-1319; G. G. Anderson, et al., Infect. Immun. 2010, 78, 963-975).

Assay [2] deals with Candida albicans ATCC 90028. The assay can be described thus: Single-dose growth inhibition, Ca. The assay is classed as cell-based. As for the experimental part: Growth inhibition of C. albicans was determined by measuring the absorbance at 530 nm (OD530), while the growth inhibition of C. neoformans was determined by measuring the difference in absorbance between 600 and 570 nm (OD600-570), after the addition of resazurin (0.001 wt. % final concentration) and incubation at 35° C. for additional 2 hrs. The absorbance was measured using a Biotek Synergy HTX plate reader. The relative growth inhibition was calculated for each well, relative to that determined from a negative control (media only) and positive control (bacteria without inhibitors) on the same plate as references. A single dose of 32 μg/mL of COE (final concentration) was used for each test.
(§1) Percentage growth inhibition of an individual sample was calculated based on growth in a reference well determined from negative controls (media only) and positive controls (bacterial/fungal media without inhibitors). Negative inhibition values indicate that the growth rate (or OD600) is higher compared to the reference growth (bacteria/fungi only, set to 0% inhibition). The growth rates for all bacteria and fungi may vary at −/+10%, which were within the reported normal distribution of bacterial/fungal growth. Any significant variations (or outliers/hits) were identified by the modified Z-Score, and the active compounds were selected by a combination of inhibition values and Z-Score.
(§2) A M(i) value of >|2.5| (absolute) would classify the sample as outliers or hits. Active samples were denoted as compounds with inhibition values equal to or above 80% and absolute Z-Score above |2.5| for either replicate (n=2 on different plates). Partial active samples were denoted as compounds with inhibition values from 50% to <80%, or absolute Z-Score below |2.5|.

In assay [3] the test system is Staphylococcus aureus MRSA ATCC 43300. The assay can be described thus: Single-dose growth inhibition, Sa. It counts as cell-based. As for the experimental part: (§3) Inhibition of bacterial growth was determined by measuring the absorbance at 600 nm (OD600), using a Tecan M1000 Pro monochromator plate reader. Growth inhibition was calculated for each well, relative to the reference growths determined from a negative control (media only) and positive control (bacteria without inhibitors) incubated in the same plate. A single dose of 32 μg/mL of COE (final concentration) was used for each test.
as §1, §2

For assay [4], the system named is E. coli K12. The assay is described as follows: Cellular uptake by E. coli K12 (absorption spectroscopy). To be noted: for Uptake by E. coli K12: 10 μg/mL COE in PBS, OD=0.5, 2 hrs, room temperature; for Uptake by E. coli K12 at 4° C.: 10 μg/mL COE, 2 hrs, 4° C. (below membrane phase transition temperature). The assay is classed as cell-based, Escherichia coli. The method, then: The relative membrane affinity of COE-D4, COE-D6 and COE-D8 was estimated from the quantity taken up by cells using absorption spectroscopy. After cultures of E. coli K12 were grown in MHB at 37° C., the cells were harvested by centrifugation (6000 rpm, 5 min) and washed twice with PBS solution (pH=7.2). The cells were then resuspended in PBS and with the density adjusted to OD=1.0. Thereafter, 5 mL of this cell suspension was mixed with an equal volume of 20 μg/mL of COE in PBS to achieve a final concentration of 10 μg/mL (in triplicates). After exposure to COEs for 2 hrs at room temperature and with shaking (200 rpm), the cells were removed by centrifugation and the supernatant was collected for absorbance scans to quantify the remaining COE in the supernatant. The uptake quantity was estimated by comparing the absorbance of the supernatant to the corresponding control COE solution (i.e. 10 μg/mL in PBS). The procedure for uptake measurements at the lower temperature is similar to the one described above, but with the exposure to COEs and centrifugation occurring at 4° C. instead of room temperature
The effect of molecular structures of the COEs on relative membrane affinity, estimated from the amount taken up by E. coli K12, was measured by absorption spectroscopy (FIG. 8a-c). These experiments utilised cell suspensions (OD=0.5) incubated for 2 hrs with 10 μg mL^−1 of various COE. Cells were removed by centrifugation, and the amount of uncomplexed COE was determined from the optical absorption spectra. The longest molecule, COE-D8, achieved the highest uptake in bacteria (72%). In contrast, only 3% of COE-D4 was absorbed while the uptake for COE-D6 was 16% (Table 1a).
Parallel experiments were carried out at 4° C. […] As a result of the reduced fluidity of cellular membrane at lower temperature, the uptake decreased to around 1% for COE-D4, 5% for COE-D6, and 34% for COE-D8.

Assay [5] relates to Klebsiella pneumoniae MDR ATCC 700603. The assay can be described thus: Single-dose growth inhibition, Kp. The assay is classed as cell-based. As for the experimental part:
as §3, §1, §2

Assay [6] has as its system Escherichia coli FDA control ATCC 25922. The assay is described as follows: Single-dose growth inhibition, Ec. It counts as cell-based. As for the experimental part:
as §3, §1, §2

The mark [7] stands for this setting: K12, 18 h, read-out: MIC against E. coli K12.
Where [8] appears, read: K12, read-out: MIC against E. coli K12.
The mark [9] stands for this setting: K12, read-out: MICeff (MIC×U %).
Setting [10] is: ATCC90028, read-out: Growth inhibition Ca.
Setting [11] is: ATCC700603, read-out: Growth inhibition Kp.
The mark [12] stands for this setting: ATCC25922, read-out: Growth inhibition Ec.
[13] abbreviates: K12, broth microdilution, MHB, 18 hrs, read-out: MIC against E. coli K12.
Setting [14] is: ATCC90028, 32 μg/mL single dose, n=2, read-out: Growth inhibition Ca.
Setting [15] is: 32 μg/mL single dose, n=2, read-out: Growth inhibition Sa.
Where [16] appears, read: ATCC700603, 32 μg/mL single dose, n=2, read-out: Growth inhibition Kp.
Setting [17] is: ATCC25922, 32 μg/mL single dose, n=2, read-out: Growth inhibition Ec.

SMILES strings stand for the structures. Values joined by “and” are separate entries in the source; they are usually repeats but may differ in a detail not shown here. Identical values can stand only once. Like-named read-outs stand apart in the source and are kept apart here. Bounds are passed on as bounds.

This note sets out measurements from patent US12157713B2, “Conjugated oligoelectrolytes as antimicrobial agents” (Nanyang Technological University, priority 2018, dated 2024).

The term MIC denotes the least concentration at which growth counts as inhibited. By inhibition is commonly meant the drop in the measured response relative to a control, in per cent. As for `C[N+](C)(C)CCCCOc1ccc(/C=C/c2ccc(OCCCC[N+](C)(C)C)cc2)cc1` [COE-D4], the figures for the MIC with E. coli K12 [1] (setting [7]), with E. coli K12 [1] (setting [8]) and in the assay on E. coli K12 [1] (setting [9]) were 128 µg/mL, 128 µg/mL and 3.8 µg/mL, respectively. The inhibition at 32 µg/mL in assay [2] (setting [10]) was under 50%; in assay [3] (read-out: Growth inhibition Sa), over 80%; in assay [5] (setting [11]), under 50%; in assay [6] (setting [12]) it was under 50%. Further, in the assay on E. coli K12 [4], the “Uptake by E. coli K12” value is 3% and 3 ± 2%. Further, the “Uptake by E. coli K12 at 4° C.” value in the assay on E. coli K12 [4] is “around 1%”.

For `C[N+](C)(C)CCCCCCOc1ccc(/C=C/c2ccc(OCCCCCC[N+](C)(C)C)cc2)cc1` [COE-D6], the figures for the minimum inhibitory concentration (MIC) in the assay on E. coli K12 [1] (setting [7]), in the assay on E. coli K12 [1] (setting [8]) and in the assay with E. coli K12 [1] (setting [9]) were 16 µg/mL, 16 µg/mL and 2.6 µg/mL, respectively. In addition, the inhibition at 32 µg/mL is over 80% in assay [2] (setting [10]), over 80% in assay [3] (read-out: Growth inhibition Sa), under 50% in assay [5] (setting [11]) and over 80% in assay [6] (setting [12]). For the same compound, the “Uptake by E. coli K12” value with E. coli K12 [4] is 16% and 16 ± 3%. In the assay on E. coli K12 [4], the “Uptake by E. coli K12 at 4° C.” value is recorded as about 5%.

Take `C[N+](C)(C)CCCCCCCCOc1ccc(/C=C/c2ccc(OCCCCCCCC[N+](C)(C)C)cc2)cc1` [COE-D8]: the MIC with E. coli K12 [1] (setting [7]) worked out at 4 µg/mL; with E. coli K12 [1] (setting [8]), 4 µg/mL; in the assay with E. coli K12 [1] (setting [9]), 2.9 µg/mL. The inhibition at 32 µg/mL is over 80% in assay [2] (setting [10]), over 80% in assay [3] (read-out: Growth inhibition Sa), 50 to 80% in assay [5] (setting [11]) and over 80% in assay [6] (setting [12]). Further, the “Uptake by E. coli K12” value with E. coli K12 [4] was 72% and 72 ± 5%. Besides, the “Uptake by E. coli K12 at 4° C.” value in the assay on E. coli K12 [4] was about 34%. Further, the “Cell affinity relative to COE-D4” value with E. coli K12 [4] (E. coli K12) was determined as 30 times.

As for `CN(C)CC[N+](C)(C)CCCCCCOc1ccc(/C=C/c2ccc(OCCCCCC[N+](C)(C)CCN(C)C)cc2)cc1` [COE-D62N], the minimal inhibitory concentration (MIC) in the assay with E. coli K12 [1] (setting [13]) came out at 8 µg/mL. For the same compound, the inhibition at 32 µg/mL in assay [2] (setting [14]) is over 80%; in assay [3] (setting [15]) it was over 80%; in assay [5] (setting [16]), under 50%; in assay [6] (setting [17]), over 80%. In the assay on E. coli K12 [4], the “Uptake by E. coli K12” value is 11±2%.

For `CN(C)CC[N+](C)(C)CCCCCCCCOc1ccc(/C=C/c2ccc(OCCCCCCCC[N+](C)(C)CCN(C)C)cc2)cc1` [COE-D82N], in the assay on E. coli K12 [1] (setting [13]), the MIC was found to be 8 µg/mL. In addition, the inhibition at 32 µg/mL in assay [2] (setting [14]), in assay [3] (setting [15]), in assay [5] (setting [16]) and in assay [6] (setting [17]) was over 80% throughout. Also, in the assay on E. coli K12 [4], the “Uptake by E. coli K12” value amounted to 76±3%.
